Measured values taken from patent US5561113A, “New pseudopeptide compounds of neurokinins” (priority 1994, dated 1996).
Where a name gives a salt, the structure may show the parent alone.

Legend:
male Hartley guinea pigs = assay: Inhibition of bronchoconstriction induced by substance P in guinea pigs; format: in vivo; conditions: dose of 1 μmol/kg i.v.
Experimental: The study is carried out on male Hartley guinea pigs (Charles River) of a mean weight of 300 to 400 g. […] The animals were pretreated with pyrilamine (1 mg/kg iv), propanolol (1 mg/kg iv). The criterion for assessing the bronchoconstriction is the increase in the tracheal insufflation pressure (TIP) induced by the injection of substance P via the iv route at the dose of 2 nM/kg iv, each animal being its own control. The injection of the test product being carried out relative to the time TO injection of the product. The results are expressed as percentage inhibition of the substance P-induced bronchoconstriction, this percentage being calculated according to the following formula: (ΔTIP before product-ΔTIP after product)/ΔTIP before product (expressed as percentage).

human receptors NK1 = biological target: T1, human receptors NK1 (Homo sapiens, UniProt P25103); assay: Affinity for the human NK1 receptor on IM-9 lymphoblasts; format: binding; conditions: human lymphoblasts IM-9 expressing NK1
T1 construct: human lymphoblasts IM-9 specifically expressing the NK1 receptor; endogenous in cells; host or cells: IM-9 human lymphoblasts
T1 sequence (P25103 whole entry): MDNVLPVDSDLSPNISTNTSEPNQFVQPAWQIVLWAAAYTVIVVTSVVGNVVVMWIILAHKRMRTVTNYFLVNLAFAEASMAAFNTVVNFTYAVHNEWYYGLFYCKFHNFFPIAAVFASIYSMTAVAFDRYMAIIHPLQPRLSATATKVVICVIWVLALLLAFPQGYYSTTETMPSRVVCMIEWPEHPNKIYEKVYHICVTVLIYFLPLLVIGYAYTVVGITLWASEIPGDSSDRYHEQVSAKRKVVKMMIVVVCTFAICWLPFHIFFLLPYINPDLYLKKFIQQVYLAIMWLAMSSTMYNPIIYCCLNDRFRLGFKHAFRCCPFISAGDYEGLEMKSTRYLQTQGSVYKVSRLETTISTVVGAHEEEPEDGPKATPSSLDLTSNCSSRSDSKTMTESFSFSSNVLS
Source text: (§1) The affinity for the human receptors NK1 and NK2 was studied on the human lymphoblasts IM-9 specifically expressing the NK1 receptor as described by D. G. PAYAN et al. (J. Biol. Chem. 1986, 261, 14321-14329)and on CHO-K1 cells transfected with the NK2 receptor based on the "CellPhect transfection" kit (Pharmacia).

NK1 receptors = biological target: T2, NK1 receptors (Oryctolagus cuniculus, UniProt G1SEI7); assay: Isolated smooth muscle: rabbit vena cava (RVC), NK1-mediated contraction; format: biochemical
T2 construct: three preparations isolated from smooth muscle were used; from tissue; host or cells: rabbit vena cava
T2 sequence (G1SEI7 1-407): as the sequence (P25103 whole entry) above, with S12F, N189D, P369A, D371E, T376N, C386G, D391N, S402Y, V405M counted along it
Source text: (§2) In order to evaluate the functional activity of the compounds of the invention as antagonists of neurokinins, three preparations isolated from smooth muscle were used: rabbit vena cava (RVC), endothelium-free rabbit pulmonary artery (RPA) and rat portal vein (RatPV) whose contractile responses are respectively mediated by the NK1, NK2 and NK3 receptors as indicated by D. JUKIC et al. (Life Sci. 1991, 49, 1463-1469).
(§3) The antagonistic power of the compounds of the invention was expressed in the form of pA2 as defined by O. […] and H. O. SCHILD (Brit. J. Pharmacol. 1959, 14, 48-58).

NK2 receptors = biological target: T3, NK2 receptors (Oryctolagus cuniculus, UniProt P79218); assay: Isolated smooth muscle: endothelium-free rabbit pulmonary artery (RPA), NK2-mediated contraction; format: biochemical
T3 construct: three preparations isolated from smooth muscle were used; from tissue; host or cells: endothelium-free rabbit pulmonary artery
T3 sequence (P79218 1-384): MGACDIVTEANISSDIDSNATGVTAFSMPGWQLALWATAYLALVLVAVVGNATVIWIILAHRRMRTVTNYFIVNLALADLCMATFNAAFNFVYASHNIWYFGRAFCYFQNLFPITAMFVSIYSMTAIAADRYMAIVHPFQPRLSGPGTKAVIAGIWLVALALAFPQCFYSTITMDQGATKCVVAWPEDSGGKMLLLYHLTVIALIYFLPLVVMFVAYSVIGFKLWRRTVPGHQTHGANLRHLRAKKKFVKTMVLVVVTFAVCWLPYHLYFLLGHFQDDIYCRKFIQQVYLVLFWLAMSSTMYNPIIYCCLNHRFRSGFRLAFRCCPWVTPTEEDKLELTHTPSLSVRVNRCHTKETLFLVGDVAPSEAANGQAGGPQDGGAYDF
Source text: as §2, §3

human receptors NK2 = biological target: T4, human receptors NK2 (Homo sapiens, UniProt P21452); assay: Affinity for the human NK2 receptor on transfected CHO-K1 cells; format: binding; conditions: CHO-K1 cells transfected with NK2 receptor
T4 construct: expressed in transfected cells; host or cells: CHO-K1
T4 sequence (P21452 1-398): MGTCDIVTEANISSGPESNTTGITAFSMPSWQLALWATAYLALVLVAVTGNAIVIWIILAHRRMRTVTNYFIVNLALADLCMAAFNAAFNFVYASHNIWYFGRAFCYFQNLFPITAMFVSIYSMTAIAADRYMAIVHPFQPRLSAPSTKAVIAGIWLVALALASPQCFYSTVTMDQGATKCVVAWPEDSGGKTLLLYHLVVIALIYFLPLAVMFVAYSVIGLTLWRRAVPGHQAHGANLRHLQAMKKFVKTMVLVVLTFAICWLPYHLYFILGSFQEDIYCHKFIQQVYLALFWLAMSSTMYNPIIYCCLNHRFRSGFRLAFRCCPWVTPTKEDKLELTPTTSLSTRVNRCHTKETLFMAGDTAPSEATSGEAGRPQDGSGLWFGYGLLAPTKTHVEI
Source text: as §1

NK3 receptors = biological target: T5, NK3 receptors (Rattus norvegicus, UniProt P16177); assay: Isolated smooth muscle: rat portal vein (RatPV), NK3-mediated contraction; format: biochemical
T5 construct: three preparations isolated from smooth muscle were used; from tissue; host or cells: rat portal vein
T5 sequence (P16177 1-452): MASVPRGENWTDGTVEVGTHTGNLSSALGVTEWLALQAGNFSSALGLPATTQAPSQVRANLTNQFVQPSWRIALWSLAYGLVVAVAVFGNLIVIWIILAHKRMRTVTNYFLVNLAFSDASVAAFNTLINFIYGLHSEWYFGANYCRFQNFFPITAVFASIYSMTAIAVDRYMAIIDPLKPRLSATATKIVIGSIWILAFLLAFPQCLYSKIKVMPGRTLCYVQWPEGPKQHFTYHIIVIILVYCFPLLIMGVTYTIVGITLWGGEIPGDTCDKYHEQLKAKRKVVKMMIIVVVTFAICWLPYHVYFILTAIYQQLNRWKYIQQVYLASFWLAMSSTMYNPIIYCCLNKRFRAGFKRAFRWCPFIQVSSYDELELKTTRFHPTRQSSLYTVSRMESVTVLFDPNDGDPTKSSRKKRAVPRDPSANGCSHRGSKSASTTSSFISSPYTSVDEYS
Source text: as §2, §3

mice (CD1 male) = assay: animal or person; format: in vivo; conditions: iv
[1] = tested on: peritoneal mast cells of male rats; assay: Mast cell degranulation in vitro (histamine release); format: cell-based; conditions: rat peritoneal mast cells, 20 min incubation, up to the concentration of 10^-4 M
Experimental: The studies are carried out on peritoneal mast cells of male rats: Sprague-Dawley of mean weight 350 to 400 g and are killed by euthanasia by inhalation of CO2. A peritoneal lavage is carried out with 20 ml of buffer (NaCl 150 mM, KCl 2.7 mM, CaCl2, 0.9 mM, Na2 HPO4, 3 mM, KH2 PO4, 3.5 mM, glucose 5.6 mM, bovine serum albumin 1 mg/ml, pH 6.8).
The lavage liquid is centrifuged at 400 g for 10 min at 4° C. and taken up in a buffer at a density of 2×10^4 mast cells/mi. The compounds are incubated at an increasing concentration for 20 min. The reaction is stopped by placing the tubes on ice and a centrifugation is carried out with 700 g for 10 min at 4° C. The supernatant and the pellet are tested by fluorimetry after condensation with o-phthaldehyde. The histamine released from the cells into the supernatant thus assayed is expressed as percentage of the total histamine content of the cells.

guinea pigs = assay: Inhibition of plasma extravasation induced by substance P in guinea pig bladder; format: in vivo; conditions: 0.1 mg/kg intravenously 5 minutes before substance P (1 μg/kg iv)
Experimental: The effect of the compounds on plasma extravasation caused by intravenous injection of substance P (1 μg/kg) in guinea pigs was evaluated on the bladder, according to the method described for rats by C. GARRET et al. (Proc. Natl. Acad. Sci., USA 1991, 88, 10208-20212). Vesical accumulation of Evans blue injected IV at the same time as substance P and 10 minutes before sacrificing, was quantified by spectrophotometry after extraction of the colorant with acetone. The inhibitory activity of the compounds administered intravenously 5 minutes before substance P was expressed as % inhibition compared with a control batch (8 animals per batch).

Structure (SMILES)	% Inhibition of substance P-induced bronchoconstriction (male Hartley guinea pigs)	Ki (human receptors NK1)	NK1 (VCL) pA2 (NK1 receptors)	NK2 (APL) pA2 (NK2 receptors)	Ki (human receptors NK2)	NK3 (VPR) pA2 (NK3 receptors)	ED50 (mice (CD1 male); Mus musculus, read-out: ED50 (dose which increases the reaction time by 50%))	ED50 (dose which increases the reaction time by 50%) (mice (CD1 male); mouse, in vivo)	Mast cell degranulation (histamine release) [1]	% inhibition of substance P-induced plasma extravasation (bladder) (guinea pigs)
CN(Cc1ccccc1)C(=O)C(Cc1ccc2ccccc2c1)NC(=O)C1CC(O)CN1C(=O)c1cn(CCCc2nn[n-]n2)c2ccccc12.[K+] (stereo not drawn) [Example 6, [1-[3-(1H-tetrazol-5-yl)propyl]indol-3-yl}carbonyl-Hyp-Nal-NMeBzl, potassium salt]	60%	1.2 nM	8.46	5.20	> 1000 nM	–	–	–	–	–
CN(Cc1ccccc1)C(=O)C(Cc1ccc2ccccc2c1)NC(=O)C1CC(O)CN1C(=O)c1cn(CCc2nn[nH]n2)c2ccccc12 (stereo not drawn) [Example 5, {1-[2-(1H-tetrazol-5-yl)ethyl]indol-3-yl}carbonyl-Hyp-Nal-NMeBzl, potassiu m salt]	–	0.63 nM	–	–	> 10000 nM	–	–	–	–	–
CN(Cc1ccccc1)C(=O)C(CC1CCCCC1)NC(=O)C1CC(O)CN1C(=O)c1cn(CCCCc2nn[nH]n2)c2ccccc12 (stereo not drawn) [Example 11, {1-[4-(1H-tetrazol-5-yl)butyl]indol-3-yl}carbonyl-Hyp-Cha-NMeBzl, potassium salt]	–	52 nM	–	–	> 1000 nM	–	–	–	–	–
CN(Cc1ccccc1)C(=O)C(Cc1cccs1)NC(=O)C1CC(O)CN1C(=O)c1cn(CCCCc2nn[nH]n2)c2ccccc12 (stereo not drawn) [Example 8, {1-[4-(1H-tetrazol-5-yl)butyl]indol-3-yl}carbonyl-Hyp-Thi-NMeBzl, potassiu m salt]	–	110 nM	–	–	> 1000 nM	–	–	–	–	–
CN(Cc1ccccc1)C(=O)C(Cc1ccc2ccccc2c1)NC(=O)C1CC(O)CN1C(=O)c1cn(Cc2nn[n-]n2)c2ccccc12.[K+] (stereo not drawn) [Example 4, {1-[(1H-tetrazol-5-yl)methyl]indol-3-yl}carbonyl-Hyp-Nal-NMeBzl,potassium salt]	61%	0.78 nM	8.14	–	> 1000 nM	5.84	–	–	–	–
CN1CC[C@]23c4c5ccc(O)c4O[C@H]2[C@@H](O)C=C[C@H]3[C@H]1C5 [morphine, reference compound]	–	–	–	–	–	–	0.3 mg/kg	–	–	–
CN(Cc1ccccc1)C(=O)C(Cc1ccc2ccccc2c1)NC(=O)C1CC(O)CN1C(=O)c1cn(CCCCc2nn[n-]n2)c2ccccc12.[K+] (stereo not drawn) [Example 1, {1-[4-(1H-tetrazol-5-yl)butyl]indol-3-yl}carbonyl-Hyp-Nal-NMeBzl, potassiu m salt]	95%	–	9.57	5.57	2400 nM	4.96	–	0.018 mg/kg	does not cause mast cell degranulation	56%
CN(Cc1ccccc1)C(=O)C(Cc1ccc2ccccc2c1)NC(=O)C1CC(O)CN1C(=O)c1cn(CCCCCc2nn[n-]n2)c2ccccc12.[K+] (stereo not drawn) [Example 7, {1-[5-(1H-tetrazol-5-yl)pentyl]indol-3-yl}carbonyl-Hyp-Nal-NMeBzl, potassium salt]	58%	5.9 nM	7.88	–	10000 nM	–	–	–	–	–
CN(Cc1ccccc1)C(=O)C(Cc1ccc(Cl)cc1)NC(=O)C1CC(O)CN1C(=O)c1cn(CCCCc2nn[nH]n2)c2ccccc12 (stereo not shown) [Example 9, {1-[4-(1H-tetrazol-5-yl)butyl]indol-3-yl}carbonyl-Hyp-(4-chloro)Phe-NMeBz potassium salt]	–	22 nM	–	–	3900 nM	–	–	–	–	–
CN(Cc1ccccc1)C(=O)C(Cc1ccc2c(c1)CCCC2)NC(=O)C1CC(O)CN1C(=O)c1cn(CCCCc2nn[n-]n2)c2ccccc12.[K+] (stereo not drawn) [Example 2, {1-[4-(1H-tetrazol-5-yl)butyl]indol-3-yl}carbonyl-Hyp-Tna-NMeBzl, potassiu m salt]	–	14 nM	8.17	6.47	3600 nM	5.87	–	–	–	–
COc1ccc(CC(NC(=O)C2CC(O)CN2C(=O)c2cn(CCCCc3nn[nH]n3)c3ccccc23)C(=O)N(C)Cc2ccccc2)cc1OC (stereo not shown) [Example 10, {1-[4-(1H-tetrazol-5-yl)butyl]indol-3-yl}carbonyl-Hyp-(3,4-dimethoxy)Phe-NMeBzl, potassium salt]	–	180 nM	–	–	> 10000 nM	–	–	–	–	–
CN(Cc1ccccc1)C(=O)C(CC1CCc2ccccc2C1)NC(=O)C1CC(O)CN1C(=O)c1cn(CCCCc2nn[n-]n2)c2ccccc12.[K+] (mixture of isomers) [Example 3, {1-[4-(1H-tetrazol-5-yl)butyl]indol-3-yl}carbonyl-Hyp-Thn-NMeBzl, potassiu m salt]	–	14 nM	7.87	5.87	1400 nM	5.87	–	–	–	–
